Patent publication US20260152527A1, “NOVEL MELANOCORTIN ANALOGS” (priority 2022, published 2026)
Positions of bridges follow the written chain, without caps; N, C: chain ends. Non-standard residues stand in square brackets, D forms with d. Residues, ends and D or L forms follow the SMILES beside them. Triazole bridges read from a SMILES are 1,4-linked. *: point of attachment. Benzoyl(3,5-(OH)2) = O=C(c1cc(O)cc(O)c1)*; Lys(N3) = [N-]=[N+]=NCCCC[C@H](N)C(=O)O; dPhe(4-F) = N[C@H](Cc1ccc(F)cc1)C(=O)O; Nle = CCCC[C@H](N)C(=O)O; Pra = C#CC[C@H](N)C(=O)O

What was measured:
[1] = test system: corneal edema following Descemetorhexis without Endothethelial Keratoplasty (DWEK) surgery; type: in vivo; conditions: rabbit
Protocol: To evaluate the efficacy of a peptide formulation in reducing corneal edema following Descemetorhexis without Endothethelial Keratoplasty (DWEK) surgery a study in rabbits was undertaken. […] A Table summarizing the parameters regarding the study is provided in FIGS. 5A-5B and a schematic exemplifying the timeline of the study is provided in FIG. 6.
Treatment was administered once (QD) or twice daily (BID) with approximately 6-8 hours between each BID dose for 28 days.
The rabbits were subjected to a surgical procedure prior to administering topical treatment. The animals received buprenorphine (0.01-0.05 mg/kg SC) and were sedated immediately prior to the procedure with ketamine/xylazine cocktail (20-50/4-10 mg/kg IM). Aseptic precautions were taken for the surgical procedure. […] Sterile eyewash was then used to irrigate the ocular surface of the left eye. […] The animal's corneal epithelium was marked with a circular ring (5 mm) to create a template for resection of the host tissue. […] Descemet's membrane was scored peripherally using a reverse Terry-Sinskey hook, and then Descemet's membrane was peeled from the overlying stroma. Descemet's membrane was removed using forceps. Viscoelastic was removed by Irrigation Aspiration (IA) using balanced salt saline (BSS). […]
In addition, tonometry was performed by a veterinary ophthalmologist or a trained technician. Intraocular pressure (IOP) was measured in both eyes of all animals at days 2, 4, 8, 15, 22, and 29. […] Six consecutive measurements were obtained and the average IOP shown on the display was recorded. Three independent measurements were obtained and recorded for each eye.
Pachymetry was also performed by a veterinary ophthalmologist or trained technician on days 2, 4, 8, 15, 22, and 29. Corneal thickness was measured in both eyes using an ultrasonic pachymeter. […]
Optical coherence tomography (OS only) was also measured in the animals. […]

[2] = biological target: T1, human recombinant MC5R (Homo sapiens, UniProt P33032); assay: Ca2+ signalling functional assay, MC5R stable cell line (CHO-K1/Ga15); type: cell-based
T1 construct: host or cells: CHO-K1/Ga15
T1 sequence (P33032 whole entry): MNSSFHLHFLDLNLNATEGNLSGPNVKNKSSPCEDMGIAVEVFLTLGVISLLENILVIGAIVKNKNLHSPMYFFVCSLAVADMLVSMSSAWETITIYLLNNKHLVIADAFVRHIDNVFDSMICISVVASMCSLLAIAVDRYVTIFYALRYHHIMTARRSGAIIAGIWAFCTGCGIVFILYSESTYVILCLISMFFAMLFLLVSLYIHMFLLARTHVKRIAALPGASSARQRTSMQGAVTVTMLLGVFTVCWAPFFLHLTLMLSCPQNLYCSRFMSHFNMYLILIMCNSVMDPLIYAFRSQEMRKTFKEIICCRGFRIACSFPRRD
Protocol: The Ca^2+ signalling functional assay was performed on a human recombinant MC5R stable cell line (CHO-K1/Ga15, GenScript). The cells were cultured at 37° C. and 5% C02 with culture medium (90% Ham's F-12K (Kaighn's)+10% FBS+400 μg/mL G418+100 μg/mL Hygromycin B). Cells were washed with PBS and then detached by incubation with 0.05% (w/v) Trypsin EDTA at 37° C. for 2 to 5 mins. Detached cells were suspended in Ham's F-12K (Kaighn's) (containing 10% FBS) and a 50 μL cell suspension is seeded into each well of a 384-well assay plate at a density of 15,000 cells/well. Cells were allowed to settle overnight at 37° C., 5% CO2. […] Then, 100 nL of compounds were transferred to the compound plate by the Echo machine. Thirty microliter assay buffer was added to the compounds plate and then shaken for 20-40 minutes. The plates were placed on the FLIPR and 15 μL of the compound was added to each well, then calcium flux signal was measured.

CCCC[C@H](NC(=O)c1cc(O)cc(O)c1)C(=O)N[C@H]1CCCCn2cc(nn2)C[C@@H](C(N)=O)NC(=O)[C@H](Cc2c[nH]c3ccccc23)NC(=O)[C@H](CCCNC(=N)N)NC(=O)[C@@H](Cc2ccc(F)cc2)NC(=O)[C@H](Cc2c[nH]cn2)NC1=O [KR-072, HyBA-Nle-[Lys(N3)-His-Dphe(4-F)-Arg-Trp-Pra]-NH2] ({Benzoyl(3,5-(OH)2)}-[Nle][Lys(N3)]H[dPhe(4-F)]RW[Pra]-NH2; triazole 2-7)
corneal edema by stromal thickness measurements (OCT) ([1]; DWEK, topical 0.05, 0.1, 0.5 mg/mL QD vs vehicle): decrease corneal edema | wound healing / rate of wound closure (corneal flat mount analysis) ([1]; topical 0.1 mg/mL): enhanced wound healing | efficacy on corneal stromal thickness by OCT ([1]; two lowest treatment options 0.05 mg/mL or 0.1 mg/mL): Statistically significant efficacy | EC50 [2]: 78 nM | IC50 ([2]; calcium flux functional assay): 78 nM
